Test results taken from patent publication US20240317758A1 (Halia Therapeutics, Inc., priority 2021, published 2024).
pIC50: −log10 of the molar value.

target: T1, full-length recombinant human NEK7 (Homo sapiens, UniProt Q8TDX7); assay: NEK7 enzymatic assay; format: biochemical; conditions: recombinant human NEK7, casein substrate, radiolabelled ATP
T1 construct: full-length recombinant human NEK7; GST (N); purchased SignalChem NO9-10G; host or cells: Sf9 insect cells (baculovirus)
Experimental: Casein substrate (from bovine milk, hydrolyzed and partially dephosphorylated mixture of α, β and κ caseins, obtained from Sigma Aldrich, catalogue #C4765, diluted in distilled water to a final concentration of 1 mg/mL) and full-length recombinant human NEK7 (expressed by baculovirus in Sf9 insect cells using a N-terminal GST tag, obtained from SignalChem, catalogue #NO9-10G, 0.1 μg/μL) were mixed in assay buffer (20 mM Hepes pH 7.5, 10 mM MgCl2, 1 mM EGTA, 0.02% Brij35, 0.02 mg/ml BSA, 0.1 mM Na3VO4, 2 mM DTT, 1% DMSO). Compounds of interest (serial 3-fold dilution in DMSO from 10 μM to 0.5 nM) or vehicle (1% DMSO) were dispensed into the kinase reaction mixture by Acoustic technology (Echo550; nanoliter range). After incubation at room temperature for 20 minutes, the kinase reaction was initiated by addition of [^33P]-ATP (specific activity 10 μCi/μl) and the mixture was incubated at room temperature for 2 hours. The reaction was then stopped by spotting the reaction mixture on strips of phosphocellulose P81 paper. Following washing, the radioactivity of the P81 paper was measured and kinase activity data were expressed as the percent remaining kinase activity in test samples compared to vehicle reactions. IC50 values and curve fits were obtained using Prism (GraphPad Software).
Casein substrate (from bovine milk, hydrolyzed and partially dephosphorylated mixture of α, β and κ caseins, obtained from Sigma Aldrich, catalogue #C4765, diluted in distilled water to a final concentration of 1 mg/mL, assay concentration 20 μM) and full-length recombinant human Nek7 (expressed by baculovirus in Sf9 insect cells using a N-terminal GST tag, obtained from SignalChem, catalogue #NO9-10G, 0.1 μg/μL, assay concentration 70 nM) were mixed in assay buffer (20 mM Hepes pH 7.5, 10 mM MgCl2, 1 mM EGTA, 0.02% Brij35, 0.02 mg/ml BSA, 0.1 mM […], 2 mM DTT, 1% DMSO). Compounds of interest (in DMSO, serial 3-fold dilution from 10 μM to 0.5 nM) or control (1% DMSO) were dispensed into the kinase reaction mixture by Acoustic technology (Echo550; nanoliter range). After incubation at room temperature for 20 minutes, the kinase reaction was initiated by addition of [^32P]-ATP (Specific activity 10 μCi/μl) and the mixture was incubated at room temperature for 2 hours. The reaction was then stopped by spotting the reaction mixture on strips of phosphocellulose P81 paper. Following washing, the radioactivity of the P81 paper was measured and kinase activity data were expressed as the percent remaining kinase activity in test samples compared to vehicle (dimethyl sulfoxide) reactions. IC50 values and curve fits were obtained using Prism (GraphPad Software).

T1 sequence (Q8TDX7 whole entry): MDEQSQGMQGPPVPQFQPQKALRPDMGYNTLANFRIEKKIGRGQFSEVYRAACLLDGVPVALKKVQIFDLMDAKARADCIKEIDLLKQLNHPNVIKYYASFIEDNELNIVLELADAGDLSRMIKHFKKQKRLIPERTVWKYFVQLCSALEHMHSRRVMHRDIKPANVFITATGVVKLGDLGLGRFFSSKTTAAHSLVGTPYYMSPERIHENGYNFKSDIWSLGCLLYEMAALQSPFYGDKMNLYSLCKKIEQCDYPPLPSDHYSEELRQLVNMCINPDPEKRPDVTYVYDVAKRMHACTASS

Row | Structure (SMILES) | pIC50
1 | CCN1CCN(Cc2ccc(NC(=O)Nc3ccc(-c4cn(C5CC5)c5ncnc(N)c45)cc3Cl)cc2C(F)(F)F)CC1 [Example I-55, 1-(4-(4-amino-7-cyclopropyl-7H-pyrrolo[2,3-d]pyrimidin-5-yl)-2-chlorophenyl)-3-(4-((4-ethylpiperazin-1-yl)methyl)-3-(trifluoromethyl)phenyl)urea] | 6.30 to 7.00
2 | CN(C)C1CCN(Cc2ccc(NC(=O)Nc3ccc(-c4cn(C5CC5)c5ncnc(N)c45)cc3F)cc2C(F)(F)F)CC1 [Example I-69] | > 7.00
3 | CN1CCC(Oc2ccc(NC(=O)Nc3ccc(-c4cn(C5CC5)c5ncnc(N)c45)cc3F)cc2C(F)(F)F)C(F)C1 (single isomer, unassigned) [Example I-89, 1-(4-(4-amino-7-cyclopropyl-7H-pyrrolo[2,3-d]pyrimidin-5-yl)-2-fluorophenyl)-3-(4-((3-fluoro-1-methylpiperidin-4-yl)oxy)-3-(trifluoromethyl)phenyl)urea] | 6.30 to 7.00
4 | Nc1ncnc2c1c(-c1ccc(NC(=O)Nc3ccc(CN4CCN(C5COC5)CC4)c(C(F)(F)F)c3)c(F)c1)cn2C1CC1 [Example I-86, 1-(4-(4-amino-7-cyclopropyl-7H-pyrrolo[2,3-d]pyrimidin-5-yl)-2-fluorophenyl)-3-(4-((4-(oxetan-3-yl)piperazin-1-yl)methyl)-3-(trifluoromethyl)phenyl)urea] | 6.30 to 7.00
5 | CN1CCN(Cc2ccc(NC(=O)Nc3ccc(-c4cn(C5CC5)c5ncnc(N)c45)cn3)cc2C(F)(F)F)CC1 [Example I-14, 1-(5-(4-amino-7-cyclopropyl-7H-pyrrolo[2,3-d]pyrimidin-5-yl)pyridin-2-yl)-3-(4-((4-methylpiperazin-1-yl)methyl)-3-(trifluoromethyl)phenyl)urea] | > 7.00
6 | CN1CCN(Cc2cc(NC(=O)Nc3ccc(-c4cn(C5CC5)c5ncnc(N)c45)cc3F)cc(C(F)(F)F)c2)CC1 [Example I-93, 1-(4-(4-amino-7-cyclopropyl-7H-pyrrolo[2,3-d]pyrimidin-5-yl)-2-fluorophenyl)-3-(3-((4-methylpiperazin-1-yl)methyl)-5-(trifluoromethyl)phenyl)urea] | > 7.00
7 | CN1CC2CCC1CN2Cc1ccc(NC(=O)Nc2ccc(-c3cn(C4CC4)c4ncnc(N)c34)cc2F)cc1C(F)(F)F (stereo not shown) [Example I-9, 1-(4-(4-amino-7-cyclopropyl-7H-pyrrolo[2,3-d]pyrimidin-5-yl)-2-fluorophenyl)-3-(4-((5-methyl-2,5-diazabicyclo[2.2.2]octan-2-yl)methyl)-3-(trifluoromethyl)phenyl)urea] | 6.30 to 7.00
8 | CN1C[C@@H]2CN(Cc3ccc(NC(=O)Nc4ccc(-c5cn(C6CC6)c6ncnc(N)c56)cc4F)cc3C(F)(F)F)C[C@@H]2C1 [Example I-5, 1-(4-(4-amino-7-cyclopropyl-7H-pyrrolo[2,3-d]pyrimidin-5-yl)-2-fluorophenyl)-3-(4-(((3aR,6aS)-5-methylhexahydropyrrolo[3,4-c]pyrrol-2(1H)-yl)methyl)-3-(trifluoromethyl)phenyl)urea] | 6.30 to 7.00
9 | Nc1ncnc2c1c(-c1ccc(NC(=O)Nc3ccc(CN4CCC(F)(F)CC4)c(C(F)(F)F)c3)c(F)c1)cn2C1CC1 [Example I-85, 1-(4-(4-amino-7-cyclopropyl-7H-pyrrolo[2,3-d]pyrimidin-5-yl)-2-fluorophenyl)-3-(4-((4,4-difluoropiperidin-1-yl)methyl)-3-(trifluoromethyl)phenyl)urea] | < 5.70
10 | Nc1ncnc2c1c(-c1ccc(NC(=O)Nc3ccc(CN4CCC(O)CC4)c(C(F)(F)F)c3)c(F)c1)cn2C1CC1 [Example I-96, 1-(4-(4-amino-7-cyclopropyl-7H-pyrrolo[2,3-d]pyrimidin-5-yl)-2-fluorophenyl)-3-(4-((4-hydroxypiperidin-1-yl)methyl)-3-(trifluoromethyl)phenyl)urea] | 6.30 to 7.00
11 | Cc1cc(NC(=O)Nc2ccc(-c3nn(C4COC4)c4ncnc(N)c34)cc2)ccc1N1CCOCC1 [Example I-23, 1-(4-(4-amino-1-(oxetan-3-yl)-1H-pyrazolo[3,4-d]pyrimidin-3-yl)phenyl)-3-(3-methyl-4-morpholinophenyl)urea] | < 5.70
12 | CN1CCN(Cc2ccc(NC(=O)Nc3ccc(-c4cn(C5CC5)c5ncnc(N)c45)cc3F)cc2C(F)(F)F)CC12CC2 [Example I-73, 1-(4-(4-amino-7-cyclopropyl-7H-pyrrolo[2,3-d]pyrimidin-5-yl)-2-fluorophenyl)-3-(4-((4-methyl-4,7-diazaspiro[2.5]octan-7-yl)methyl)-3-(trifluoromethyl)phenyl)urea] | 5.70 to 6.30
13 | CCN1CCN(Cc2ccc(NC(=O)Nc3ccc(-c4cn(C5CC5)c5ncnc(N)c45)cc3F)cc2C(F)(F)F)CC1 [Example I-41, 1-(4-(4-amino-7-cyclopropyl-7H-pyrrolo[2,3-d]pyrimidin-5-yl)-2-fluorophenyl)-3-(4-((4-ethylpiperazin-1-yl)methyl)-3-(trifluoromethyl)phenyl)urea] | > 7.00
14 | CN1CCCN(Cc2ccc(NC(=O)Nc3ccc(-c4cn(C5CC5)c5ncnc(N)c45)cc3F)cc2C(F)(F)F)CC1 [Example I-44, 1-(4-(4-amino-7-cyclopropyl-7H-pyrrolo[2,3-d]pyrimidin-5-yl)-2-fluorophenyl)-3-(4-((4-methyl-1,4-diazepan-1-yl)methyl)-3-(trifluoromethyl)phenyl)urea] | > 7.00
15 | CN1CCN(Cc2ccc(NC(=O)Nc3ccc(-c4cn(CCO)c5ncnc(N)c45)cc3F)cc2C(F)(F)F)CC1 [Example I-71, 1-(4-(4-amino-7-(2-hydroxyethyl)-7H-pyrrolo[2,3-d]pyrimidin-5-yl)-2-fluorophenyl)-3-(4-((4-methylpiperazin-1-yl)methyl)-3-(trifluoromethyl)phenyl)urea] | > 7.00
16 | Cc1cc(NC(=O)Nc2ccc(-c3cn(C4CC4)c4ncnc(N)c34)cc2F)ccc1CN1CCN(C)CC1 [Example I-39, 1-(4-(4-amino-7-cyclopropyl-7H-pyrrolo[2,3-d]pyrimidin-5-yl)-2-fluorophenyl)-3-(3-methyl-4-((4-methylpiperazin-1-yl)methyl)phenyl)urea] | < 5.70
17 | CN1CCC(Cc2ccc(NC(=O)Nc3ccc(-c4cn(C5CC5)c5ncnc(N)c45)cc3F)cc2C(F)(F)F)CC1 [Example I-11, 1-(4-(4-amino-7-cyclopropyl-7H-pyrrolo[2,3-d]pyrimidin-5-yl)-2-fluorophenyl)-3-(4-((1-methylpiperidin-4-yl)methyl)-3-(trifluoromethyl)phenyl)urea] | < 5.70
18 | CN1CCN(Cc2c(F)cc(NC(=O)Nc3ccc(-c4cn(C5CC5)c5ncnc(N)c45)cc3F)cc2C(F)(F)F)CC1 [Example I-12, 1-(4-(4-amino-7-cyclopropyl-7H-pyrrolo[2,3-d]pyrimidin-5-yl)-2-fluorophenyl)-3-(3-fluoro-4-((4-methylpiperazin-1-yl)methyl)-5-(trifluoromethyl)phenyl)urea] | > 7.00
19 | CN1CCN(Cc2ccc(NC(=O)Nc3ccc(-c4cn(C5CN(C)C5)c5ncnc(N)c45)cc3F)cc2C(F)(F)F)CC1 [Example I-104, 1-(4-(4-amino-7-(1-methylazetidin-3-yl)-7H-pyrrolo[2,3-d]pyrimidin-5-yl)-2-fluorophenyl)-3-(4-((4-methylpiperazin-1-yl)methyl)-3-(trifluoromethyl)phenyl)urea] | > 7.00
20 | CN1CCN(Cc2ccc(NC(=O)Nc3ccc(-c4nn(CCCCCO)c5ncnc(N)c45)cc3F)cc2C(F)(F)F)CC1 [Example I-103, 1-(4-(4-amino-1-(5-hydroxypentyl)-1H-pyrazolo[3,4-d]pyrimidin-3-yl)-2-fluorophenyl)-3-(4-((4-methylpiperazin-1-yl)methyl)-3-(trifluoromethyl)phenyl)urea] | > 7.00
21 | CN1CCN(Cc2ccc(NC(=O)Nc3ccc(-c4cn(C5CC5)c5ncnc(N)c45)cc3Cl)cc2C(F)(F)F)CC1 [Example I-35, 1-(4-(4-amino-7-cyclopropyl-7H-pyrrolo[2,3-d]pyrimidin-5-yl)-2-chlorophenyl)-3-(4-((4-methylpiperazin-1-yl)methyl)-3-(trifluoromethyl)phenyl)urea] | 6.30 to 7.00
22 | CN1CCN(Cc2ccc(NC(=O)Nc3ncc(-c4cn(C5CC5)c5ncnc(N)c45)cc3F)cc2C(F)(F)F)CC1 [Example I-67, 1-(5-(4-amino-7-cyclopropyl-7H-pyrrolo[2,3-d]pyrimidin-5-yl)-3-fluoropyridin-2-yl)-3-(4-((4-methylpiperazin-1-yl)methyl)-3-(trifluoromethyl)phenyl)urea] | 6.30 to 7.00
